# Test system: normal microglia
# Test: Microglia in normal non-tumor bearing mice, flow cytometry
# Format: in vivo, mouse
# Details: 200 mg/kg once per day for 7 days
# Experimental: Data are presented as mean±SEM. […] Circles represent individual mice (n=5-6 per group). P values were obtained using unpaired two-tailed Student's t-test; *P<0.05.
# As many immune cell epitopes are papain-sensitive, for investigation of immune cell infiltration by flow cytometric analysis, tumors were digested to a single cell suspension by incubation for 10 minutes at 37° C. with 5 mL of 1.5 mg/ml collagenase III (Worthington) and 0.06 mg/mL DNase I in 1× Hanks Balanced Salt Solution (HBSS) with calcium and magnesium. The cell suspension was then washed with PBS and passed through a 40 μm mesh to remove undigested tissue. To remove myelin debris, the cell pellet was resuspended at room temperature in 15 ml of 25% Percoll prepared from stock isotonic Percoll (90% Percoll [Sigma], 10% 10× HBSS), and then spun for 15 minutes at 1500 rpm (Sorvall Legend RT) with accelerator and brake set to 1. The cell pellet was then washed with lx HBSS prior to being resuspended in FACS buffer.
# After counting, cells were incubated with 1 μl of Fc Block for every million cells for at least 15 minutes at 4° C. Cells were then stained with the appropriate antibodies for 10 minutes at 4° C., washed with FACS buffer, and resuspended in FACS buffer containing DAPI (5 mg/ml diluted 1:5000) for live/dead cell exclusion.
structure (smiles),measurement,value
CNC(=O)c1cc(Oc2ccc3nc(N[C@@H]4CCCC[C@H]4O)sc3c2)ccn1 [BLZ945],normal microglia in non-tumor bearing mice,depletes normal microglia
